Source: patent EP3255433A1, “METHODS USING BLM AS A MARKER OF MULTIPLE MYELOMA” (priority 2016, dated 2017)
Like-named read-outs stand apart in the source and are kept apart here.

Experiments:
[1] = tested on: human myeloma cell lines (HMCL); assay: Cell growth inhibition of human myeloma cell lines (CellTiter-Glo Luminescent Cell Viability Assay); format: cell-based; conditions: 96 h, 4 days culture, 2 ng/ml interleukin six
Source text: • Figure 1: BLM expression in normal and malignant plasma cells. BLM expression in normal BMPCs (N = 5), in MM cells of patients with intramedullary MM (N = 206) and in HMCLs (N = 26). Ordinate : BLM expression, as expressed in Affimetrix signal arbitrary units. Abscissa : from left to right : BMPCs (n=5); MMCs (n=206) and HMCLs (n=26). • Figure 2: BLM gene expression in the 7 MM molecular subgroups of the TT2-cohort. PR = proliferation, LB = low bone disease, MS = MMSET, HY = hyperdiploid, CD1 = cyclin D1/D3, CD2 = cyclin D1/D3, MF = MAF. * indicates higher score value compared to all other groups with P<0.05. Ordinate : BLM expression, as expressed in Affimetrix signal arbitrary units. […] At day 4 of culture, the viability was assessed by CellTiter-Glo® Luminescent Cell Viability Assay. […] Data are mean values ± standard deviation (SD) of five experiments determined on sextuplet culture wells. • Figure 4A : Growth inhibition of a plurality of MM cell lines in the presence of the ML216 BLM inhibitor. Ordinate : cell growth inhibition, as expressed as percent of control cells without ML216 :Cell lines tested : □ XG1 cells; ◊ XG7 cells; ○ XG12 cells; ◆XG25 cells; ● XG19 cells; + LP1 cells. […] At day 4 of culture, the viability and total cell counts were assessed and the percentage of CD138 viable plasma and non-myeloma cells was determined by flow cytometry. […]

[2] = tested on: primary myeloma cells of patients; assay: Cytotoxicity on primary myeloma cells of patients (CD138 flow cytometry); format: cell-based, human; conditions: 4 days, IL-6 (1 ng/mL), co-cultured with bone marrow environment, n=7
Source text: • Figure 1: BLM expression in normal and malignant plasma cells. BLM expression in normal BMPCs (N = 5), in MM cells of patients with intramedullary MM (N = 206) and in HMCLs (N = 26). Ordinate : BLM expression, as expressed in Affimetrix signal arbitrary units. Abscissa : from left to right : BMPCs (n=5); MMCs (n=206) and HMCLs (n=26). • Figure 2: BLM gene expression in the 7 MM molecular subgroups of the TT2-cohort. PR = proliferation, LB = low bone disease, MS = MMSET, HY = hyperdiploid, CD1 = cyclin D1/D3, CD2 = cyclin D1/D3, MF = MAF. * indicates higher score value compared to all other groups with P<0.05. Ordinate : BLM expression, as expressed in Affimetrix signal arbitrary units. Abscissa : from left to right: PR, LB, MS, HY, CD1, CD2 and MF . • Figure 3: BLM expression in MMCs could predict for shorter overall and event free survival in independent cohorts of patients. • Figure 3A : Patients of the HM cohort (n = 206) were ranked according to increasing BLM expression and a maximum difference in overall survival (OS) was obtained using the Maxstat R function. Upper curve : BLM^Low; Lower curve : BLM^High. Ordinate : Overall Survival (OS). Abscissa : Days from diagnosis. • Figure 3B : BLM expression is also associated with a shorter event free survival (EFS) in the HM cohort (n = 206). Upper curve : BLM^Low; Lower curve : BLM^High. Ordinate : […]). […] At day 4 of culture, the viability was assessed by CellTiter-Glo® Luminescent Cell Viability Assay. […] Data are mean values ± standard deviation (SD) of five experiments determined on sextuplet culture wells. • Figure 4A : Growth inhibition of a plurality of MM cell lines in the presence of the ML216 BLM inhibitor. Ordinate : cell growth inhibition, as expressed as percent of control cells without ML216 :Cell lines tested : □ XG1 cells; ◊ XG7 cells; ○ XG12 cells; ◆XG25 cells; ● XG19 cells; + LP1 cells. […] At day 4 of culture, the viability and total cell counts were assessed and the percentage of CD138 viable plasma and non-myeloma cells was determined by flow cytometry. […]

O=C(Nc1ccc(F)c(C(F)(F)F)c1)Nc1nnc(-c2ccncc2)s1 [ML216]
IC50 ([1]; median over 6 HMCL (XG-1, XG-7, XG-12, XG-25, XG-19, LP1), read-out: median IC50): 4.1 µM
IC50 ([1]; range over 6 HMCL, read-out: IC50 (range)): 1.2 to 30 µM
reduction of the median number of viable myeloma cells ([2]; 3 µM, P = 0.001): 54%
reduction of the median number of viable myeloma cells ([2]; 6 µM, P < 0.001): 60%
reduction of the median number of viable myeloma cells ([2]; 10 µM, P <0.001): 74%
